Experimental data as given in patent publication US20070128217A1 (priority 2003, published 2007).

Assays:
[1] = system: rabbit serum obtained by immunizing a rabbit with the SARS-CoV strain Frankfurt 1; type: binding; parameters: Binding of a rabbit serum to linear peptides / Binding of a rabbit serum to looped peptides / Rabbit serum linear peptides / Rabbit serum looped peptides / Binding of a rabbit serum to linear peptides of protein N of SARS-CoV Urbani (Rabbit serum linear peptides) / Binding of a rabbit serum to looped/cyclic peptides of protein N of SARS-CoV Urbani (Rabbit serum looped peptides): unit not given here
[2] = system: recombinant human anti-SARS-CoV antibody 03-018; type: binding; parameters: Binding of antibody 03-018 to linear peptides of the N protein of SARS-CoV Urbani / Binding of antibody 03-018 to looped/cyclic peptides of the N protein of SARS-CoV Urbani: unit not given here
[3] = system: antibodies in sera from SARS patients (sera 1a, 1b, 2, 6, 37, 62, London, SARS-yellow, SARS-green); type: binding, human; parameters: Binding of serum 6 to linear peptides of protein X1 of SARS-CoV Urbani / Binding of serum 37 to linear peptides of protein X1 of SARS-CoV Urbani / Binding of serum 6 to looped/cyclic peptide (PEPSCAN-ELISA) / Binding of serum 37 to looped/cyclic peptide (PEPSCAN-ELISA) / Binding of serum 37 to looped/cyclic peptides of protein X1 of SARS-CoV Urbani / Binding of serum 6 to linear peptides of protein X2 / Binding of serum 37 to linear peptides of protein X2 / Binding of serum 37 to looped/cyclic peptides of protein X2 of SARS-CoV Urbani / Binding of serum 6 to linear peptides of protein M of SARS-CoV Urbani / Binding of serum 37 to linear peptides of protein M of SARS-CoV Urbani / Binding of serum 6 to looped/cyclic peptides of protein M of SARS-CoV Urbani / Binding of serum 37 to looped/cyclic peptides of protein M of SARS-CoV Urbani / Binding of serum 6 to linear peptides of protein X3 of SARS-CoV Urbani / Binding of serum 37 to linear peptides of protein X3 of SARS-CoV Urbani / Binding of serum 37 to looped/cyclic peptides of protein X3 of SARS-CoV Urbani / Binding of serum 6 to linear peptides of protein X4 of SARS-CoV Urbani / Binding of serum 37 to linear peptides of protein X4 of SARS-CoV Urbani / Binding of serum 37 to looped/cyclic peptides of protein X4 of SARS-CoV Urbani / Binding of serum 6 to linear peptides of protein X5 of SARS-CoV Urbani / Binding of serum 37 to linear peptides of protein X5 of SARS-CoV Urbani / Binding of serum 37 to looped/cyclic peptides of protein X5 of SARS-CoV Urbani / Binding of serum 6 to linear peptides of protein N of SARS-CoV Urbani / Binding of serum 37 to linear peptides of protein N of SARS-CoV Urbani / Binding of serum 6 to linear peptide (PEPSCAN-ELISA) / Binding of serum 1a to looped/cyclic peptides of protein N of SARS-CoV Urbani / Binding of serum 1b to looped/cyclic peptides of protein N of SARS-CoV Urbani / Binding of serum 2 to looped/cyclic peptides of protein N of SARS-CoV Urbani / Binding of serum 6 to looped/cyclic peptides of protein N of SARS-CoV Urbani / Binding of serum 37 to looped/cyclic peptides of protein N of SARS-CoV Urbani / Binding of serum 62 to looped/cyclic peptides of protein N of SARS-CoV Urbani / Binding of serum London to looped/cyclic peptides of protein N of SARS-CoV Urbani / Binding of serum SARS-green to looped/cyclic peptides of protein N of SARS-CoV Urbani: unit not given here
[4] = system: control sera (pooled serum of ten healthy LUMC hospital workers; commercial negative donor pooled serum from the Dutch bloodbank); type: binding, human; parameters: Binding of Control serum LUMC to linear peptides / Binding of Control serum Blood-bank to linear peptides / Binding of Control serum LUMC to looped peptides / Binding of Control Serum Blood-Bank to Looped peptides / Binding of Control serum LUMC to linear peptides of the protein M of SARS-CoV Urbani / Binding of Control serum Blood-bank to linear peptides of the protein M of SARS-CoV Urbani / Binding of Control serum LUMC to looped peptides of the protein M of SARS-CoV Urbani / Binding of Control Serum Blood-Bank to Looped peptides of the protein M of SARS-CoV Urbani: unit not given here

Sequence | Binding of antibody 03-018 to linear peptides of the N protein of SARS-CoV Urbani [2] | Binding of antibody 03-018 to looped/cyclic peptides of the N protein of SARS-CoV Urbani [2] | Binding of serum 1a to linear peptides of protein N of SARS-CoV Urbani [3] | Binding of serum 1a to looped/cyclic peptides of protein N of SARS-CoV Urbani [3] | Binding of serum 1b to linear peptides of protein N of SARS-CoV Urbani [3] | Binding of serum 1b to looped/cyclic peptides of protein N of SARS-CoV Urbani [3] | Binding of serum 2 to linear peptides of protein N of SARS-CoV Urbani [3] | Binding of serum 2 to looped/cyclic peptides of protein N of SARS-CoV Urbani [3] | Binding of serum 6 to linear peptides of protein N of SARS-CoV Urbani [3] | Binding of serum 6 to looped/cyclic peptides of protein N of SARS-CoV Urbani [3] | Binding of serum 37 to linear peptides of protein N of SARS-CoV Urbani [3] | Binding of serum 37 to looped/cyclic peptides of protein N of SARS-CoV Urbani [3] | Binding of serum 62 to looped/cyclic peptides of protein N of SARS-CoV Urbani [3] | Binding of serum London to looped/cyclic peptides of protein N of SARS-CoV Urbani [3] | Binding of serum SARS-green to looped/cyclic peptides of protein N of SARS-CoV Urbani [3] | Binding of serum SARS-yellow to looped/cyclic peptides of protein N of SARS-CoV Urbani [3] | Binding of Control Serum Blood-Bank to Looped peptides [4] | Binding of Control serum Blood-bank to linear peptides [4] | Binding of Control serum LUMC to linear peptides [4] | Binding of Control serum LUMC to looped peptides [4] | also measured
DDQIGYYRRATRRVR | 0.1 | 0.3 | 0.3 | 0.4 | 0.1 | 0.2 | 0.3 | 0.5 | 0.3 | 0.4 | 0.7 | 0.9 | 0.7 | 0.5 | 0.4 | 0.5 | 0.8 | 1.0 | 1.0 | 0.8 | Recognition of the peptide by the rabbit serum [1]: recognized; Binding of serum 62 to linear peptides of protein N of SARS-CoV Urbani [3]: 0.9; Binding of serum London to linear peptides of protein N of SARS-CoV Urbani [3]: 0.7; Binding of serum SARS-green to linear peptides of protein N of SARS-CoV Urbani [3]: 0.6; Binding of serum SARS-yellow to linear peptides of protein N of SARS-CoV Urbani [3]: 0.6
VTKKSAAEASKKPRQ | 0.1 | 0.2 | – | 0.3 | – | 0.2 | – | 0.6 | – | 0.3 | – | 0.6 | 0.4 | 0.5 | 0.6 | 0.7 | 0.6 | 0.9 | 0.9 | 0.7 | Binding of a rabbit serum to linear peptides of protein N of SARS-CoV Urbani (Rabbit serum linear peptides) [1]: 0.1; Binding of a rabbit serum to looped/cyclic peptides of protein N of SARS-CoV Urbani (Rabbit serum looped peptides) [1]: 0.6; Recognition of the peptide by sera of SARS-CoV infected individuals, and form (linear, looped/cyclic) in which it is recognized [3]: recognized in linear form
NKEGIVWVATEGALN | 0.1 | 0.2 | 0.3 | 0.3 | 0.1 | 0.2 | 0.2 | 0.4 | 0.2 | 0.2 | 0.7 | 0.6 | 0.4 | 0.3 | 0.3 | 0.4 | 0.6 | 0.7 | 0.7 | 0.6 | Binding of a rabbit serum to linear peptides of protein N of SARS-CoV Urbani (Rabbit serum linear peptides) [1]: 0.1; Binding of a rabbit serum to looped/cyclic peptides of protein N of SARS-CoV Urbani (Rabbit serum looped peptides) [1]: 0.2; Binding of serum 62 to linear peptides of protein N of SARS-CoV Urbani [3]: 0.6; Binding of serum London to linear peptides of protein N of SARS-CoV Urbani [3]: 0.4; Binding of serum SARS-green to linear peptides of protein N of SARS-CoV Urbani [3]: 0.4; Binding of serum SARS-yellow to linear peptides of protein N of SARS-CoV Urbani [3]: 0.9
KQYNVTQAFGRRGPE | 0.1 | 0.1 | – | 0.0 | – | 0.0 | – | 0.1 | – | 0.2 | – | 0.0 | 0.0 | 0.2 | 0.4 | 0.0 | 0.5 | 0.6 | 0.7 | 0.5 | Recognition of the peptide by the rabbit serum [1]: recognized; Binding of serum 1a to linear peptide (PEPSCAN-ELISA) [3]: 0.3; Binding of serum 1b to linear peptide (PEPSCAN-ELISA) [3]: 0.1; Binding of serum 2 to linear peptide (PEPSCAN-ELISA) [3]: 0.1; Binding of serum 6 to linear peptide (PEPSCAN-ELISA) [3]: 0.2; Binding of serum 37 to linear peptide (PEPSCAN-ELISA) [3]: 0.6; Binding of serum 62 to linear peptide (PEPSCAN-ELISA) [3]: 0.7; Binding of serum London to linear peptide (PEPSCAN-ELISA) [3]: 0.5; Binding of serum SARS-green to linear peptide (PEPSCAN-ELISA) [3]: 0.3; Binding of serum SARS-yellow to linear peptide (PEPSCAN-ELISA) [3]: 0.6
AQPLPQRQKKQPTVT | 0.1 | 0.1 | 0.3 | 0.2 | 0.2 | 0.1 | 0.4 | 0.2 | 0.4 | 0.1 | 0.7 | 0.3 | 0.2 | 0.2 | 0.3 | 0.2 | – | – | – | – | Binding of a rabbit serum to linear peptides of protein N of SARS-CoV Urbani (Rabbit serum linear peptides) [1]: 0.2; Binding of a rabbit serum to looped/cyclic peptides of protein N of SARS-CoV Urbani (Rabbit serum looped peptides) [1]: 0.2; Binding of serum 62 to linear peptides of protein N of SARS-CoV Urbani [3]: 0.8; Binding of serum London to linear peptides of protein N of SARS-CoV Urbani [3]: 1.6; Binding of serum SARS-green to linear peptides of protein N of SARS-CoV Urbani [3]: 0.3; Binding of serum SARS-yellow to linear peptides of protein N of SARS-CoV Urbani [3]: 1.4; Control Serum Blood-Bank Looped peptides [4]: 0.4; Control serum Blood-bank linear peptides [4]: 0.6; Control serum LUMC linear peptides [4]: 0.7; Control serum LUMC looped peptides [4]: 0.3
